For 16 compounds, IC50 results are on record in patent US20180022786A1, “NOVEL SODIUM CHANNEL BLOCKING PEPTIDES AND THE USE THEREOF” (priority 2012, published 2018).

Where two headings read alike, the source gives them in different places.

Test [1] concerns the target T1, Nav1.7 (Homo sapiens, UniProt Q15858). Description: cell-based.
Target sequence in this assay (Q15858 other isoform, or with tags, fused parts or gaps): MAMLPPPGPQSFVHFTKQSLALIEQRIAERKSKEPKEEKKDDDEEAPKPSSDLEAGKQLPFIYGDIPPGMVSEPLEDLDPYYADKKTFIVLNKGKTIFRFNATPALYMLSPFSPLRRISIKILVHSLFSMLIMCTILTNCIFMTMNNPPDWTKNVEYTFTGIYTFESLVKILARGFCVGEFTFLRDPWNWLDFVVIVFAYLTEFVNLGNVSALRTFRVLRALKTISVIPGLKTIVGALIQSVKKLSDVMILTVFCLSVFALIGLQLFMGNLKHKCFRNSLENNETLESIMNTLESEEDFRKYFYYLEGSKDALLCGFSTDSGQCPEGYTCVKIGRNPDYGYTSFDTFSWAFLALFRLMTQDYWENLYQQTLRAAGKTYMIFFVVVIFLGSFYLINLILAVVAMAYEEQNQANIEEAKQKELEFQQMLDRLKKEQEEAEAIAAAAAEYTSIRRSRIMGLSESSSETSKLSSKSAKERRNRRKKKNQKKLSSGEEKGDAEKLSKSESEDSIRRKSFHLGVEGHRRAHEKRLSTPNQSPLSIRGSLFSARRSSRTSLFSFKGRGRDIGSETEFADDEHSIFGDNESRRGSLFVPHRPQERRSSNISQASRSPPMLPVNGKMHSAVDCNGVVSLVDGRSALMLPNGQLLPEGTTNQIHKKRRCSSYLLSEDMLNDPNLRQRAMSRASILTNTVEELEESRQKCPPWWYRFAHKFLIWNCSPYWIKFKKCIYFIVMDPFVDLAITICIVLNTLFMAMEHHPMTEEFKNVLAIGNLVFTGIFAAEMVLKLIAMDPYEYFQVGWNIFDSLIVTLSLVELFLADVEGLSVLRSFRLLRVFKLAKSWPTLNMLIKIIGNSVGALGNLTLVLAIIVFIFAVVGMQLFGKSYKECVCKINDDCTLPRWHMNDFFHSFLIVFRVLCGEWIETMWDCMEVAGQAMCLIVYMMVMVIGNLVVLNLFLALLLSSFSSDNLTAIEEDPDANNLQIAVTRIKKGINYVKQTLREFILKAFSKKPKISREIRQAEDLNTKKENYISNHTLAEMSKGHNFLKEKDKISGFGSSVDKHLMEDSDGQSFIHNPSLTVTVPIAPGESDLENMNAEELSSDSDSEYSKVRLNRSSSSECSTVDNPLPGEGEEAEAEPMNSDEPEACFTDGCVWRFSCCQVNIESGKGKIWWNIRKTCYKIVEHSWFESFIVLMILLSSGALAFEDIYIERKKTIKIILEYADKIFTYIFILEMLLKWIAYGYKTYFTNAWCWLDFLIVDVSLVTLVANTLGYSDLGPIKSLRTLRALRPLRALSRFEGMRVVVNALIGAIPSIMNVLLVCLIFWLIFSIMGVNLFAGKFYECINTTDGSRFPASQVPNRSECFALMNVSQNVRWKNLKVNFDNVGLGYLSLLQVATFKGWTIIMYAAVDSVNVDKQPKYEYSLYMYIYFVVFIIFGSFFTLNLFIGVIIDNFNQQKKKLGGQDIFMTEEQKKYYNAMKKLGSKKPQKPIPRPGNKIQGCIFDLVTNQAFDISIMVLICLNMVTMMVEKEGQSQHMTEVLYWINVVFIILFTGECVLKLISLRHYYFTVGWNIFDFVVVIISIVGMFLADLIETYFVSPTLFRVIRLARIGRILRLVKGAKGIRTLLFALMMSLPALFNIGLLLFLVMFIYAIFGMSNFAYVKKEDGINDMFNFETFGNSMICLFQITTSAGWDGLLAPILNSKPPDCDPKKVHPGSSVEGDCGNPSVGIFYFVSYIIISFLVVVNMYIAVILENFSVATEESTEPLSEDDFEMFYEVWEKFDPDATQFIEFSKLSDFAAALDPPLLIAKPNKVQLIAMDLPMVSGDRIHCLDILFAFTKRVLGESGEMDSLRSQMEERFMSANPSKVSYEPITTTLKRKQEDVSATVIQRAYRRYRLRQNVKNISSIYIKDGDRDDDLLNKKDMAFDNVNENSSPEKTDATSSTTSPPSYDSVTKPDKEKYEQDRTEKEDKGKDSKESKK
For test [2], the target named is T2, Nav1.2 (Rattus norvegicus, UniProt P04775). Description: cell-based. The settings on record: EP (electrophysiology).
Test [3] concerns the target Nav1.2 (Homo sapiens, UniProt Q99250). The settings on record: read-out: TTX IC50; cited from earlier work.
For another test, the target named is Nav1.1 (Homo sapiens, UniProt P35498). The settings on record: read-out: TTX IC50; cited from earlier work.
For a further test, the target named is Nav1.6 (Homo sapiens, UniProt Q9UQD0). The settings on record: read-out: TTX IC50; cited from earlier work.
In a further test the target is Nav1.8 (Homo sapiens, UniProt Q9Y5Y9). The settings on record: read-out: TTX IC50; cited from earlier work.
A further test deals with Nav1.9 (Homo sapiens, UniProt Q9UI33). The settings on record: read-out: TTX IC50; cited from earlier work.
For the next test, the target named is Nav1.3 (Homo sapiens, UniProt Q9NY46). The settings on record: read-out: TTX IC50; cited from earlier work.
Test [4] concerns the target T2, Nav1.2. The settings on record: cited from earlier work.
The target in test [5] is T1, Nav1.7. The settings on record: Table 2, natural toxins, from WO 2012/004664 A2; cited from earlier work.
Setting [6] is: FLIPR, read-out: Nav1.7 IC50 FLIPR.
[7] abbreviates: Table 2, natural toxins, from WO 2012/004664 A2.

The term IC50 denotes the concentration that inhibits the measured activity by half.

T2 sequence (P04775 whole entry): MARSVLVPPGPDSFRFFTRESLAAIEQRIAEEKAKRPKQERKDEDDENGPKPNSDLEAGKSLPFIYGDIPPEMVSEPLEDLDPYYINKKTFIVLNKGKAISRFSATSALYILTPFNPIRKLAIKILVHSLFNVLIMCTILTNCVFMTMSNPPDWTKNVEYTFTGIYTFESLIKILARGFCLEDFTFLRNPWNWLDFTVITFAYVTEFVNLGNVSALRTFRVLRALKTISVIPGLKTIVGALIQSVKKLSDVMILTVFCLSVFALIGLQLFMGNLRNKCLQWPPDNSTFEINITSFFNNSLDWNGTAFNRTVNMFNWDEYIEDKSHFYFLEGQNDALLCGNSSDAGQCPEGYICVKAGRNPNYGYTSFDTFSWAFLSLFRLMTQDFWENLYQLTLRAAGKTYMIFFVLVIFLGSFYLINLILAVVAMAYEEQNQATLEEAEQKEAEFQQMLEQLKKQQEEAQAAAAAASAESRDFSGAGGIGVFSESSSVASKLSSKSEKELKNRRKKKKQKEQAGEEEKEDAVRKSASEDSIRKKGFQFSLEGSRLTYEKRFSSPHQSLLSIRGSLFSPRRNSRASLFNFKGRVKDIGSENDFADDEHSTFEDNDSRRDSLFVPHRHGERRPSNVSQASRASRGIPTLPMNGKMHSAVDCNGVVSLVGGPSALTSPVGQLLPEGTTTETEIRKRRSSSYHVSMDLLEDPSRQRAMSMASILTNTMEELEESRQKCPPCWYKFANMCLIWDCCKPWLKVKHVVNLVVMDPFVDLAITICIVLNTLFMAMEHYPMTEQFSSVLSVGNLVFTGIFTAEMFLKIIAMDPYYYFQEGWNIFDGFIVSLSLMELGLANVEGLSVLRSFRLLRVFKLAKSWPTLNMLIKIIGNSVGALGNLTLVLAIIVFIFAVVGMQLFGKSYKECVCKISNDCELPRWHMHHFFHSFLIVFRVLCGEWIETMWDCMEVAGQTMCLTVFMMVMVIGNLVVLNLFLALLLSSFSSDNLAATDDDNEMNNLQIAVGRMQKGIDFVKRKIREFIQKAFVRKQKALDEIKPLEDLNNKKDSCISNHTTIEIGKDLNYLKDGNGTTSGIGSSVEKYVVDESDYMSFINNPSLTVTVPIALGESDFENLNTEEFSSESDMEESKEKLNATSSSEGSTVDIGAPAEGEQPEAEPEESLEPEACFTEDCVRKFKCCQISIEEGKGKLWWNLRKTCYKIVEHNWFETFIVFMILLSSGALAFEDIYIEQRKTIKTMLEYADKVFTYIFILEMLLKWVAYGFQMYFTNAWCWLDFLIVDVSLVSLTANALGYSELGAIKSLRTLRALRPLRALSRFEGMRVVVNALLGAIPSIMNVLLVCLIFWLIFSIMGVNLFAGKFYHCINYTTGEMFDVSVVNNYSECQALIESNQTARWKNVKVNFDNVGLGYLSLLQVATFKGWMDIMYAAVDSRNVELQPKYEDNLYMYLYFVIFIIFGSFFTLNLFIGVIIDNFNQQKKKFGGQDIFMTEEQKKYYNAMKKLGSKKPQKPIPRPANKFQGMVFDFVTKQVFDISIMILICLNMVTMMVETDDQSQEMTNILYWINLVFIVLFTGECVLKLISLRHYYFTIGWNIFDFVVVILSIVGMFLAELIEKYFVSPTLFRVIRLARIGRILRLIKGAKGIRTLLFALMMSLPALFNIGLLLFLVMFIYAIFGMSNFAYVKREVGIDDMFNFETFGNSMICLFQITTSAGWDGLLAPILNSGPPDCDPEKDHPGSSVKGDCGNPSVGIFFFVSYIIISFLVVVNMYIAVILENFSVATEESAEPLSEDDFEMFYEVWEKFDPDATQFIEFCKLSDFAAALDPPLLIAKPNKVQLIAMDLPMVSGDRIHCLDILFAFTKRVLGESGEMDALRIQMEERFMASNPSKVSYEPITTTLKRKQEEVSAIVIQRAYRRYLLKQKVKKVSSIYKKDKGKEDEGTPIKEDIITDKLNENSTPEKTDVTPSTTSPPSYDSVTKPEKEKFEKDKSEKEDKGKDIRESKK

As to `CSCC[C@@H]1NC(=O)CNC(=O)[C@H](CCC(=O)O)NC(=O)[C@@H]2CSSC[C@H](NC(=O)[C@@H](N)Cc3ccc(O)cc3)C(=O)N[C@@H](CCC(N)=O)C(=O)N[C@@H](CCCCN)C(=O)N[C@@H](Cc3c[nH]c4ccccc34)C(=O)N[C@@H](CCSC)C(=O)N[C@@H](Cc3c[nH]c4ccccc34)C(=O)N[C@@H]([C@@H](C)O)C(=O)N[C@H]3CSSC[C@H](NC(=O)[C@H](C(C)C)NC1=O)C(=O)N[C@@H](CCCNC(=N)N)C(=O)N[C@@H](CC(C)C)C(=O)N[C@@H](Cc1c[nH]c4ccccc14)C(=O)N[C@H](C(=O)N[C@@H](CCCCN)C(=O)N[C@@H](CCCCN)C(=O)N[C@@H](CCCCN)C(=O)N[C@@H](CC(C)C)C(=O)N[C@H](Cc1c[nH]c4ccccc14)C(=O)NC1CCCCC1)CSSC[C@H](NC(=O)[C@H](CCCCN)NC(=O)[C@H](CCCNC(=N)N)NC(=O)[C@H](CCC(=O)O)NC(=O)[C@H](CO)NC(=O)[C@H](CC(=O)O)NC3=O)C(=O)N2` [Protoxin II (D)-NHcyclohexyl], the IC50 at Nav1.7 [1] (setting [6]) was determined as 31 nM. Regarding `CSCC[C@@H]1NC(=O)CNC(=O)[C@H](CCC(=O)O)NC(=O)[C@@H]2CSSC[C@H](NC(=O)[C@@H](N)Cc3ccc(O)cc3)C(=O)N[C@@H](CCC(N)=O)C(=O)N[C@@H](CCCCN)C(=O)N[C@@H](Cc3c[nH]c4ccccc34)C(=O)N[C@@H](CCSC)C(=O)N[C@@H](Cc3c[nH]c4ccccc34)C(=O)N[C@@H]([C@@H](C)O)C(=O)N[C@H]3CSSC[C@H](NC(=O)[C@H](C(C)C)NC1=O)C(=O)N[C@@H](CCCNC(=N)N)C(=O)N[C@@H](CC(C)C)C(=O)N[C@@H](Cc1c[nH]c4ccccc14)C(=O)N[C@H](C(=O)N[C@@H](CCCCN)C(=O)N[C@@H](CCCCN)C(=O)N[C@@H](CCCCN)C(=O)N[C@@H](CC(C)C)C(=O)N[C@@H](Cc1c[nH]c4ccccc14)C(=O)N[C@H](Cc1c[nH]c4ccccc14)C(=O)O)CSSC[C@H](NC(=O)[C@H](CCCCN)NC(=O)[C@H](CCCNC(=N)N)NC(=O)[C@H](CCC(=O)O)NC(=O)[C@H](CO)NC(=O)[C@H](CC(=O)O)NC3=O)C(=O)N2` [Protoxin II-D-Trp], the 50% inhibitory concentration (IC50) on Nav1.7 [1] (setting [6]) was found to be 16.5 nM. Turning to `CNC(=O)[C@H](Cc1c[nH]c2ccccc12)NC(=O)[C@H](CC(C)C)NC(=O)[C@H](CCCCN)NC(=O)[C@H](CCCCN)NC(=O)[C@H](CCCCN)NC(=O)[C@@H]1CSSC[C@@H]2NC(=O)[C@H](CCCCN)NC(=O)[C@H](CCCNC(=N)N)NC(=O)[C@H](CCC(=O)O)NC(=O)[C@H](CO)NC(=O)[C@H](CC(=O)O)NC(=O)[C@@H]3CSSC[C@H](NC(=O)[C@H](C(C)C)NC(=O)[C@H](CCSC)NC(=O)CNC(=O)[C@H](CCC(=O)O)NC(=O)[C@H](CSSC[C@H](NC(=O)[C@@H](N)Cc4ccc(O)cc4)C(=O)N[C@@H](CCC(N)=O)C(=O)N[C@@H](CCCCN)C(=O)N[C@@H](Cc4c[nH]c5ccccc45)C(=O)N[C@@H](CCSC)C(=O)N[C@@H](Cc4c[nH]c5ccccc45)C(=O)N[C@@H]([C@@H](C)O)C(=O)N3)NC2=O)C(=O)N[C@@H](CCCNC(=N)N)C(=O)N[C@@H](CC(C)C)C(=O)N[C@@H](Cc2c[nH]c3ccccc23)C(=O)N1` [Protoxin II-NHMe], the IC50 at Nav1.7 [1] (setting [6]) worked out at 64.3 nM. The compound `CSCC[C@@H]1NC(=O)CNC(=O)[C@H](CCC(=O)O)NC(=O)[C@@H]2CSSC[C@H](NC(=O)[C@@H](N)Cc3ccc(O)cc3)C(=O)N[C@@H](CCC(N)=O)C(=O)N[C@@H](CCCCN)C(=O)N[C@@H](Cc3c[nH]c4ccccc34)C(=O)N[C@@H](CCSC)C(=O)N[C@@H](Cc3c[nH]c4ccccc34)C(=O)N[C@@H]([C@@H](C)O)C(=O)N[C@H]3CSSC[C@H](NC(=O)[C@H](C(C)C)NC1=O)C(=O)N[C@@H](CCCNC(=N)N)C(=O)N[C@@H](CC(C)C)C(=O)N[C@@H](Cc1c[nH]c4ccccc14)C(=O)N[C@H](C(=O)N[C@@H](CCCCN)C(=O)N[C@@H](CCCCN)C(=O)N[C@@H](CCCCN)C(=O)N[C@@H](CC(C)C)C(=O)N[C@@H](Cc1c[nH]c4ccccc14)C(=O)Nc1ccccc1)CSSC[C@H](NC(=O)[C@H](CCCCN)NC(=O)[C@H](CCCNC(=N)N)NC(=O)[C@H](CCC(=O)O)NC(=O)[C@H](CO)NC(=O)[C@H](CC(=O)O)NC3=O)C(=O)N2` [Protoxin II-NHanaline] showed a half-inhibitory concentration (IC50) against Nav1.7 [1] of 5.1 nM. For the compound `CSCC[C@@H]1NC(=O)CNC(=O)[C@H](CCC(=O)O)NC(=O)[C@@H]2CSSC[C@H](NC(=O)[C@@H](N)Cc3ccc(O)cc3)C(=O)N[C@@H](CCC(N)=O)C(=O)N[C@@H](CCCCN)C(=O)N[C@@H](Cc3c[nH]c4ccccc34)C(=O)N[C@@H](CCSC)C(=O)N[C@@H](Cc3c[nH]c4ccccc34)C(=O)N[C@@H]([C@@H](C)O)C(=O)N[C@H]3CSSC[C@H](NC(=O)[C@H](C(C)C)NC1=O)C(=O)N[C@@H](CCCNC(=N)N)C(=O)N[C@@H](CC(C)C)C(=O)N[C@@H](Cc1c[nH]c4ccccc14)C(=O)N[C@H](C(=O)N[C@@H](CCCCN)C(=O)N[C@@H](CCCCN)C(=O)N[C@@H](CCCCN)C(=O)N[C@@H](CC(C)C)C(=O)N[C@@H](Cc1c[nH]c4ccccc14)C(=O)NC1CCCCC1)CSSC[C@H](NC(=O)[C@H](CCCCN)NC(=O)[C@H](CCCNC(=N)N)NC(=O)[C@H](CCC(=O)O)NC(=O)[C@H](CO)NC(=O)[C@H](CC(=O)O)NC3=O)C(=O)N2` [Protoxin II-NHcyclohexyl], at Nav1.7 [1] (setting [6]), the IC50 worked out at 22 nM. As to `COC(=O)[C@H](Cc1c[nH]c2ccccc12)NC(=O)[C@H](CC(C)C)NC(=O)[C@H](CCCCN)NC(=O)[C@H](CCCCN)NC(=O)[C@H](CCCCN)NC(=O)[C@@H]1CSSC[C@@H]2NC(=O)[C@H](CCCCN)NC(=O)[C@H](CCCNC(=N)N)NC(=O)[C@H](CCC(=O)O)NC(=O)[C@H](CO)NC(=O)[C@H](CC(=O)O)NC(=O)[C@@H]3CSSC[C@H](NC(=O)[C@H](C(C)C)NC(=O)[C@H](CCSC)NC(=O)CNC(=O)[C@H](CCC(=O)O)NC(=O)[C@H](CSSC[C@H](NC(=O)[C@@H](N)Cc4ccc(O)cc4)C(=O)N[C@@H](CCC(N)=O)C(=O)N[C@@H](CCCCN)C(=O)N[C@@H](Cc4c[nH]c5ccccc45)C(=O)N[C@@H](CCSC)C(=O)N[C@@H](Cc4c[nH]c5ccccc45)C(=O)N[C@@H]([C@@H](C)O)C(=O)N3)NC2=O)C(=O)N[C@@H](CCCNC(=N)N)C(=O)N[C@@H](CC(C)C)C(=O)N[C@@H](Cc2c[nH]c3ccccc23)C(=O)N1` [Protoxin II-OMe], at Nav1.7 [1] (setting [6]), the IC50 worked out at 8.4 nM. For the compound `CSCC[C@@H]1NC(=O)CNC(=O)[C@H](CCC(=O)O)NC(=O)[C@@H]2CSSC[C@H](NC(=O)[C@@H](N)Cc3ccc(O)cc3)C(=O)N[C@@H](CCC(N)=O)C(=O)N[C@@H](CCCCN)C(=O)N[C@@H](Cc3c[nH]c4ccccc34)C(=O)N[C@@H](CCSC)C(=O)N[C@@H](Cc3c[nH]c4ccccc34)C(=O)N[C@@H]([C@@H](C)O)C(=O)N[C@H]3CSSC[C@H](NC(=O)[C@H](C(C)C)NC1=O)C(=O)N[C@@H](CCCNC(=N)N)C(=O)N[C@@H](CC(C)C)C(=O)N[C@@H](Cc1c[nH]c4ccccc14)C(=O)N[C@H](C(=O)N[C@@H](CCCCN)C(=O)N[C@@H](CCCCN)C(=O)N[C@@H](CCCCN)C(=O)N[C@@H](CC(C)C)C(=O)N[C@@H](Cc1c[nH]c4ccccc14)C(=O)O)CSSC[C@H](NC(=O)[C@H](CCCCN)NC(=O)[C@H](CCCNC(=N)N)NC(=O)[C@H](CCC(=O)O)NC(=O)[C@H](CO)NC(=O)[C@H](CC(=O)O)NC3=O)C(=O)N2` [Protoxin II], the IC50 on Nav1.2 [2] is 100 nM. Regarding `NC1=N[C@H](O)[C@H]2[C@H]3O[C@]4(O)O[C@@H]([C@@H](O)[C@@]2(N1)[C@@H]4O)[C@]3(O)CO` [TTX, tetrodotoxin], the 50% inhibitory concentration (IC50) is 10 nM at Nav1.2 [3]; 10 nM at Nav1.1; 6 nM on Nav1.6; 50000 nM on Nav1.8; 1000 nM at Nav1.9; 15 nM on Nav1.3. As to YCQKWLWTCDSERKCCEDMVCRLWCKKRL [GsAF I], the IC50 was 255 ± 43 nM at Nav1.2 [4] (setting [7]) and 249 nM at Nav1.7 [5]. Take “YCQKWMWTCDEERKCCEGLVCRLWCKKKIEEG [VsTx II]”: the results for the IC50 on Nav1.2 [4] (setting [7]) and on Nav1.7 [5] were 42400 nM and 9260 nM, respectively.

On to “YCQKWMWTCDEERKCCEGLVCRLWCKKKIEW [GsAF II]”, for which the 50% inhibitory concentration (IC50) at Nav1.2 [4] (setting [7]) was 410 ± 20 nM; at Nav1.7 [5], 70 nM.

Turning to “YCQKWMWTCDEERKCCEGLVCRLWCKRIINM [GsMTx II/PaTX II]”, the values for the IC50 at Nav1.2 [4] (setting [7]) and at Nav1.7 [5] were 2700 nM and 260 nM, respectively.

Turning to YCQKWMWTCDSARKCCEGLVCRLWCKKII [PaTx I], at Nav1.2 [4], the IC50 was 5000 nM. In the case of “YCQKWMWTCDSERKCCEGYVCELWCKYNL [JxTx XII]”, the IC50 on Nav1.2 [4] was 73900 nM. YCQKWMWTCDSKRACCEGLRCKLWCRKII [JzTx V]: the IC50 at Nav1.2 [4] (setting [7]) is 157 ± 20 nM. As to YCQKWMWTCDSKRKCCEDMVCQLWCKKRL [GrTx I], the concentration for half-maximal inhibition (IC50) on Nav1.2 [4] (setting [7]) was 2690 nM; at Nav1.7 [5] it was 1010 nM.
